Data taken from US20170190671A1, “BIS(ARYL)CATECHOL DERIVATIVES AS HERBICIDES” (E I DU PONT DE NEMOURS AND COMPANY, priority 2014, published 2017).

Assays:
Format in all cases: in vivo
[1] = test system: giant foxtail (Setaria faberii); assay: Test A preemergence; settings: Setaria faberi, pre-emergence, 240 h, 1000 g ai/ha, 0 to 100 scale, read-out: Plant response rating, Foxtail, Giant
Outline: (§1)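 Compounds in non-phytotoxic solvent with surfactant applied as soil spray preemergence, or postemergence to plants 2-10 cm at one- to two-leaf stage, in loam/sand. After approximately 10 days in greenhouse, injury rated visually versus untreated controls, 0 (no effect) to 100 (complete control).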

[2] = test system: Italian ryegrass (Lolium multiflorum); assay: Test A preemergence; settings: Lolium multiflorum, pre-emergence, 240 h, 1000 g ai/ha, 0 to 100 scale, read-out: Plant response rating, Ryegrass, Italian
Outline: as §1

[3] = test system: barnyardgrass (Echinochloa crus-galli); assay: Test A preemergence; settings: Echinochloa crus-galli, pre-emergence, 240 h, 1000 g ai/ha, 0 to 100 scale, read-out: Plant response rating, Barnyardgrass
Outline: as §1

[4] = test system: pigweed (Amaranthus retroflexus); assay: Test A preemergence; settings: Amaranthus retroflexus, pre-emergence, 240 h, 1000 g ai/ha, 0 to 100 scale, read-out: Plant response rating, Pigweed
Outline: as §1

[5] = test system: kochia (Kochia scoparia); assay: Test A preemergence; settings: Bassia scoparia, pre-emergence, 240 h, 1000 g ai/ha, 0 to 100 scale, read-out: Plant response rating, Kochia
Outline: as §1

[6] = test system: ragweed (common ragweed, Ambrosia elatior); assay: Test A preemergence; settings: Ambrosia artemisiifolia, pre-emergence, 240 h, 1000 g ai/ha, 0 to 100 scale, read-out: Plant response rating, Ragweed
Outline: as §1

[7] = test system: giant foxtail (Setaria faberii); assay: Test A postemergence; settings: Setaria faberi, post-emergence, 240 h, 1000 g ai/ha, 0 to 100 scale, read-out: Plant response rating, Foxtail, Giant
Outline: as §1

[8] = test system: galium (catchweed bedstraw, Galium aparine); assay: Test A postemergence; settings: Galium, post-emergence, 240 h, 1000 g ai/ha, 0 to 100 scale, read-out: Plant response rating, Galium
Outline: as §1

[9] = test system: Italian ryegrass (Lolium multiflorum); assay: Test A postemergence; settings: Lolium multiflorum, post-emergence, 240 h, 1000 g ai/ha, 0 to 100 scale, read-out: Plant response rating, Ryegrass, Italian
Outline: as §1

[10] = test system: wheat (Triticum aestivum); assay: Test A postemergence; settings: Triticum aestivum, post-emergence, 240 h, 1000 g ai/ha, 0 to 100 scale, read-out: Plant response rating, Wheat
Outline: as §1

[11] = test system: corn (Zea mays); assay: Test A postemergence; settings: Zea mays, post-emergence, 240 h, 1000 g ai/ha, 0 to 100 scale
Outline: as §1

[12] = test system: barnyardgrass (Echinochloa crus-galli); assay: Test A postemergence; settings: Echinochloa crus-galli, post-emergence, 240 h, 1000 g ai/ha, 0 to 100 scale, 0 no effect, 100 complete control, read-out: Plant response rating, Barnyardgrass
Outline: as §1

[13] = test system: blackgrass (Alopecurus myosuroides); assay: Test A postemergence; settings: Alopecurus myosuroides, post-emergence, 240 h, 1000 g ai/ha, 0 to 100 scale, read-out: Plant response rating, Blackgrass
Outline: as §1

[14] = test system: pigweed (Amaranthus retroflexus); assay: Test A postemergence; settings: Amaranthus retroflexus, post-emergence, 240 h, 1000 g ai/ha, 0 to 100 scale, read-out: Plant response rating, Pigweed
Outline: as §1

[15] = test system: kochia (Kochia scoparia); assay: Test A postemergence; settings: Bassia scoparia, post-emergence, 240 h, 1000 g ai/ha, 0 to 100 scale, read-out: Plant response rating, Kochia
Outline: as §1

[16] = test system: ragweed (common ragweed, Ambrosia elatior); assay: Test A postemergence; settings: Ambrosia artemisiifolia, post-emergence, 240 h, 1000 g ai/ha, 0 to 100 scale, read-out: Plant response rating, Ragweed
Outline: as §1

[17] = test system: galium (catchweed bedstraw, Galium aparine); assay: Test C preemergence; settings: Galium, pre-emergence, 336 h, preemergence, scale 0 to 100, read-out: Plant response rating, Galium; for pest or weed control at 31 g/ha: 31 g ai/ha; for pest or weed control at 62 g/ha: 62 g ai/ha; for pest or weed control at 125 g/ha: 125 g ai/ha
Outline: (§2)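 Steps: plant seeds in loam-sand soil and treat preemergence, or grow plants in peat-based medium to 2-18 cm and spray; compound formulated in non-phytotoxic solvent/surfactant; hold in greenhouse 13-15 days; score visually versus controls from 0 (no effect) to 100 (complete control).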

[18] = test system: ragweed (common ragweed, Ambrosia elatior); assay: Test C preemergence; settings: Ambrosia artemisiifolia, pre-emergence, 336 h, preemergence, scale 0 to 100, read-out: Plant response rating, Ragweed; for pest or weed control at 31 g/ha: 31 g ai/ha; for pest or weed control at 62 g/ha: 62 g ai/ha; for pest or weed control at 125 g/ha: 125 g ai/ha; for pest or weed control at 250 g/ha: 250 g ai/ha
Outline: as §2

[19] = test system: ducksalad (Heteranthera limosa); assay: Test B flooded paddy; settings: Heteranthera limosa, 336 h; 250 g ai/ha, Flood, 13 to 15 days, scale 0 (no effect) to 100 (complete control); read-out: Plant response rating, Ducksalad
Outline: (§3)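 Under a constant 3 cm flood, test compounds went directly into the paddy water. Following 13 to 15 days of greenhouse growth, treated species and controls were compared by eye.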

[20] = test system: barnyardgrass (Echinochloa crus-galli); assay: Test B flooded paddy; settings: Echinochloa crus-galli, 336 h; 250 g ai/ha, Flood, 13 to 15 days, scale 0 (no effect) to 100 (complete control); read-out: Plant response rating, Barnyardgrass
Outline: as §3

[21] = test system: sedge, umbrella (small-flower umbrella sedge, Cyperus difformis); assay: Test B flooded paddy; settings: Cyperus difformis, 336 h; 250 g ai/ha, Flood, 13 to 15 days, scale 0 (no effect) to 100 (complete control); read-out: Plant response rating, Sedge, Umbrella
Outline: as §3

[22] = test system: rice (Oryza sativa); assay: Test B flooded paddy; settings: Oryza sativa, 336 h; 250 g ai/ha, Flood, 13 to 15 days, scale 0 (no effect) to 100 (complete control); read-out: Plant response rating, Rice
Outline: as §3

| SMILES | pest or weed control at 1000 g/ha [1] [%] | pest or weed control at 1000 g/ha [2] [%] | pest or weed control at 1000 g/ha [3] [%] | pest or weed control at 1000 g/ha [4] [%] | pest or weed control at 1000 g/ha [5] [%] | pest or weed control at 1000 g/ha [6] [%] | pest or weed control at 1000 g/ha [7] [%] | pest or weed control at 1000 g/ha [8] [%] | pest or weed control at 1000 g/ha [9] [%] | plant injury at 1000 g/ha [10] [%] | Corn plant response rating (crop injury, 0 = no effect, 100 = complete kill) at 1000 g/ha [11] [%] | pest or weed control at 1000 g/ha [12] [%] | pest or weed control at 1000 g/ha [13] [%] | pest or weed control at 1000 g/ha [14] [%] | pest or weed control at 1000 g/ha [15] [%] | pest or weed control at 1000 g/ha [16] [%] | pest or weed control at 31 g/ha [17] [%] | pest or weed control at 62 g/ha [17] [%] | pest or weed control at 125 g/ha [17] [%] | pest or weed control at 31 g/ha [18] [%] | further results |
| --- | --- | --- | --- | --- | --- | --- | --- | --- | --- | --- | --- | --- | --- | --- | --- | --- | --- | --- | --- | --- | --- |
| Clc1cnc(Oc2cccc(Cl)c2Oc2ncc(Br)cn2)nc1 [Compound 17, 5-bromo-2-[2-chloro-6-[(5-chloro-2-pyrimidinyl)oxy]phenoxy]pyrimidine] | 100 | 100 | 100 | 100 | 100 | 100 | 100 | 100 | 100 | 100 | 100 | 100 | 100 | 100 | 100 | 90 | 90 | 98 | 100 | 0 | pest or weed control at 62 g/ha [18]: 25%; pest or weed control at 125 g/ha [18]: 55%; pest or weed control at 250 g/ha [18]: 85%; pest or weed control at 250 g/ha [19]: 100%; pest or weed control at 250 g/ha [20]: 20%; pest or weed control at 250 g/ha [21]: 100%; plant injury at 250 g/ha [22]: 35% |
| Fc1cnc(Oc2c(Cl)cccc2Oc2ncc(Cl)cn2)nc1 [Compound 18, 5-chloro-2-[5-chloro-6-[(5-fluoro-2-pyrimidinyl)oxy]phenoxy]pyrimidine] | 100 | 70 | 100 | 100 | 100 | 30 | 100 | 100 | 100 | 50 | 50 | 80 | 100 | 100 | 100 | 20 | 100 | 100 | 100 | 85 | pest or weed control at 62 g/ha [18]: 100%; pest or weed control at 125 g/ha [18]: 95%; pest or weed control at 250 g/ha [18]: 95%; pest or weed control at 250 g/ha [19]: 100%; pest or weed control at 250 g/ha [20]: 50%; pest or weed control at 250 g/ha [21]: 100%; plant injury at 250 g/ha [22]: 80% |
| Fc1cnc(Oc2c(Br)cccc2Oc2ncc(Cl)cn2)nc1 [Compound 22] | 100 | 90 | 100 | 100 | 100 | 90 | 90 | 90 | 90 | 70 | 70 | 90 | 70 | 100 | 100 | 90 | 98 | 100 | 100 | 55 | pest or weed control at 62 g/ha [18]: 85%; pest or weed control at 125 g/ha [18]: 90%; pest or weed control at 250 g/ha [18]: 95%; pest or weed control at 250 g/ha [19]: 100%; pest or weed control at 250 g/ha [20]: 45%; pest or weed control at 250 g/ha [21]: 98%; plant injury at 250 g/ha [22]: 45% |
| Fc1cnc(Oc2c(F)cccc2Oc2ncc(Cl)cn2)nc1 [Compound 23] | 100 | 80 | 100 | 100 | 100 | 100 | 90 | 90 | 90 | 60 | 50 | 90 | 80 | 100 | 90 | 90 | 100 | 100 | 100 | 85 | pest or weed control at 62 g/ha [18]: 100%; pest or weed control at 125 g/ha [18]: 100%; pest or weed control at 250 g/ha [18]: 100%; pest or weed control at 250 g/ha [19]: 90%; pest or weed control at 250 g/ha [20]: 60%; pest or weed control at 250 g/ha [21]: 80%; plant injury at 250 g/ha [22]: 60% |
